Test results published in patent publication US10722451B2, “Tree bark extract as anti-aging composition and uses thereof” (LES LABORATOIRES BIOFOREXTRA, priority 2017, dated 2020).

Assays:
[1] = UV protection in vitro by spectrophotometer (SPF calculation); format: physicochemical; conditions: 20 μg/ml in ethanol; absorbance 290-320 nm
[2] = system: type I Collagen in human skin fibroblasts (WS1); assay: Stimulation of collagen type I in skin fibroblasts (immunofluorescence); format: cell-based; conditions: positive control at 10 ng/mL
Protocol: The effect of the extract on collagen stimulation was evaluated using specific antibodies to type I Collagen. Once bound to collagen, the primary antibody is detected by a secondary antibody on which a fluorophore is grafted. Human skin fibroblasts (WS1, ATCC CRL-1502) were seeded in 96-well microplates in a full decomplemented culture medium and incubated overnight at 37° C. and 5% CO2 to allow their adherence. Thereafter, the cells were incubated for 24 hours in the absence or presence of increasing concentrations of Red maple bark extract (12.5, 25, 50 and 100 μg/mL). The culture medium containing the extract was then removed and the cells were fixed with 95% ethanol for 10 minutes. The cells were washed three times with PBS and permeabilized with 0.5% Triton solution in PBS for 15 minutes. […] The fluorescence emitted by the secondary antibody was then measured and pictures were taken with a fluorescence microscope Cytation3.
The effect of the extract on collagen stimulation was evaluated using specific antibodies to type I Collagen. Once bound to collagen, the primary antibody is detected by a secondary antibody on which a fluorophore is grafted. […] The fluorescence emitted by the secondary antibody was then measured and pictures were taken with a fluorescence microscope Cytation3.

Compound	SPF [1]	average increase of collagen (fluorescence) compared to untreated cells [2]
CC1CC(OC(=O)c2ccccc2O)CC(C)(C)C1 (centres unmarked) [Homosalate]	3.9 ± 0.2	
TGF-β		56%
